{
  "source": "patent US6696293B2",
  "about": "“Process for producing carotenoids and biological materials useful therefor” (Roche Vitamins Inc., priority 2000, dated 2004)",
  "tested_on": "P. rhodozyma ATCC 96594",
  "assay": "Growth of P. rhodozyma colonies on SHAM-containing YPD-agar",
  "type": "cell-based, Phaffia rhodozyma",
  "settings": "3 day-cultivation at 20° C.; for Relative colony diameter (%): relative to control colonies without SHAM",
  "procedure": "To examine the effects of the inhibition of KCN-resistant respiration mediated by alternative oxidase on the growth of P. rhodozyma, SHAM was added to a culture of P. rhodozyma on YPD-agar medium. SHAM was dissolved in ethanol and added to the YPD-agar medium to give 0.05, 0.15, 0.30, 0.45 and 0.90 mg/ml as a final concentration. After dilution, 2×10^7 cells/ml of P. rhodozyma ATCC 96594 were spread on the media. After a 3 day-cultivation at 20° C., colonies were counted. […] However, the colonies that grew on SHAM-containing media were smaller than the colonies that grew on the control media.",
  "data": [
    {"smiles": "O=C(NO)c1ccccc1O", "note": "[SHAM, Salicylhydroxamic acid]", "values": [
      {"measurement": "Relative colony diameter (%)", "setting": "SHAM 0.05 mg/ml in YPD-agar", "result": 100, "unit": "%"},
      {"measurement": "Relative colony diameter (%)", "setting": "SHAM 0.15 mg/ml in YPD-agar", "result": 70, "unit": "%"},
      {"measurement": "Relative colony diameter (%)", "setting": "SHAM 0.30 mg/ml in YPD-agar", "result": 40, "unit": "%"},
      {"measurement": "Relative colony diameter (%)", "setting": "SHAM 0.45 mg/ml in YPD-agar", "result": 30, "unit": "%"},
      {"measurement": "Relative colony diameter (%)", "setting": "SHAM 0.90 mg/ml in YPD-agar", "result": 12, "unit": "%"},
      {"measurement": "Number of colonies that grew on SHAM-containing YPD agar", "setting": "SHAM 0.05-0.90 mg/ml, compared with control medium without SHAM", "result": "almost the same as that on control medium"}
    ]}
  ]
}
